In patent publication US8263598B2, “Substituted sulfonamide compounds” (Gruenenthal GmbH, priority 2008, dated 2012):

How the values were obtained:
[1] = biological target: T1, human B1R receptor (hB1R) (Homo sapiens, UniProt P46663); assay: FLIPR Ca2+ assay on human bradykinin 1 receptor (CHO K1 hB1R cells); type: cell-based; details: test substance 10 μM; CHO K1 cells with human B1R gene; agonist Lys-Des-Arg9-bradykinin 0.5 nM; compared to maximum achievable inhibition
T1 construct: host or cells: CHO K1 cells
T1 sequence (P46663 1-353): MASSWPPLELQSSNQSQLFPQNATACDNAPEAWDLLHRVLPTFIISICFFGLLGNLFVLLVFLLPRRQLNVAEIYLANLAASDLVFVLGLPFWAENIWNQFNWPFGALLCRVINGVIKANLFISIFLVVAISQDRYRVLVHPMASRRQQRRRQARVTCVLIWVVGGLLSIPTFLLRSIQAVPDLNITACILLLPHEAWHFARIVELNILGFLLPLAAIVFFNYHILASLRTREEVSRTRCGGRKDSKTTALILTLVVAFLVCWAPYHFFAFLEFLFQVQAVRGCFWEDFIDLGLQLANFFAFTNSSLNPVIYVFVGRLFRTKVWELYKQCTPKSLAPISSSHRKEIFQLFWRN
Method in brief: (§1)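 CHO K1 cells stably expressing human or rat B1R were loaded with Fluo-4 and tested at 10 μM compound. Ca²⁺ signal was read in FLIPR as % activation versus agonist. After 10 min, agonist was added (hB1R: Lys-Des-Arg9-bradykinin 0.5 nM; rB1R: Des-Arg9-bradykinin 100 nM), and % inhibition was taken relative to maximum achievable inhibition.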

[2] = biological target: T2, B1R receptor of rats (rB1R) (Rattus norvegicus, UniProt P97583); assay: FLIPR Ca2+ assay on rat bradykinin 1 receptor (CHO K1 rB1R cells); type: cell-based; details: test substance 10 μM; CHO K1 cells with B1R gene of rats; agonist Des-Arg9-bradykinin 100 nM; compared to maximum achievable inhibition
T2 construct: host or cells: CHO K1 cells
T2 sequence (P97583 1-337): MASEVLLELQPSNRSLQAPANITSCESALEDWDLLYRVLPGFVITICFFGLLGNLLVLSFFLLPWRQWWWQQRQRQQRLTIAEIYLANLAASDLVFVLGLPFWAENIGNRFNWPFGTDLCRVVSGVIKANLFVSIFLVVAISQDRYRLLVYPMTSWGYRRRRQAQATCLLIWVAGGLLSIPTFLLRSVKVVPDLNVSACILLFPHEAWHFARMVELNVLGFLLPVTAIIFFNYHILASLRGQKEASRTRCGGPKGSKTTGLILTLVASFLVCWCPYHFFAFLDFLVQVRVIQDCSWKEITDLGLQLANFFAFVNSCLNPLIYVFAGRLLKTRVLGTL
Method in brief: as §1

SMILES | inhibition at 10 µM [1] [%] | inhibition at 10 µM [2] [%]
COc1c(C)cc(S(=O)(=O)N(C)CCOCC(=O)N2CCn3c(CN4CCCCC4)ccc3C2c2ccccc2)c(C)c1C (centres unmarked) [Example 107, 4-methoxy-N,2,3,5-tetramethyl-N-(2-(2-oxo-2-(1-phenyl-6-(piperidin-1-ylmethyl)-3,4-dihydropyrrolo[1,2-a]pyrazin-2(1H)-yl)ethoxy)ethyl)benzene-sulfonamide] | 98 | 102
COc1cc(C)c(S(=O)(=O)N(C)CCOCC(=O)N2CCn3c(CN4CCCCC4)ccc3C2c2ccccc2)c(C)c1 (centres unmarked) [Example 16, 4-methoxy-N,2,6-trimethyl-N-(2-(2-oxo-2-(1-phenyl-6-(piperidin-1-ylmethyl)-3,4-dihydropyrrolo[1,2-a]pyrazin-2(1H)-yl)ethoxy)ethyl)benzenesulfonamide] | 104 | 102
Cc1cc(C)c(S(=O)(=O)N(C)CCOCC(=O)N2CCn3c(CN4CCOCC4)ccc3C2c2ccccc2)c(C)c1 (centres unmarked) [Example 142, N,2,4,6-tetramethyl-N-(2-(2-(6-(morpholinomethyl)-1-phenyl-3,4-dihydro-pyrrolo[1,2-a]pyrazin-2(1H)-yl)-2-oxoethoxy)ethyl)benzenesulfonamide] | 103 | 101
O=C(CC(NS(=O)(=O)c1ccc2ccccc2c1)c1ccccc1)N1CCn2c(CN3CCCC3)ccc2C1 (centres unmarked) [Example 8, N-(3-oxo-1-phenyl-3-(6-(pyrrolidin-1-ylmethyl)-3,4-dihydropyrrolo[1,2-a]pyrazin-2(1H)-yl)propyl)naphthalene-2-sulfonamide] | 95 | 42

Second part, the compound after the results:

inhibition at 10 µM [1] [%] | inhibition at 10 µM [2] [%] | SMILES
105 | 102 | COc1cc(C)c(S(=O)(=O)N(C)CCOCC(=O)N2CCn3cccc3C2CCc2ccccc2)c(C)c1 (centres unmarked) [Example 133, 4-methoxy-N,2,6-trimethyl-N-(2-(2-oxo-2-(1-phenethyl-3,4-dihydropyrrolo[1,2-a]pyrazin-2(1H)-yl)ethoxy)ethyl)benzenesulfonamide]
33 | 73 | COc1cc(C)c(S(=O)(=O)N(CCOCC(=O)N2CCn3ccnc3C2)Cc2ccccc2)c(C)c1C [Example 43, N-benzyl-N-(2-(2-(5,6-dihydroimidazo[1,2-a]pyrazin-7(8H)-yl)-2-oxoethoxy)ethyl)-4-methoxy-2,3,6-trimethylbenzenesulfonamide]
101 | 101 | COc1cc(C)c(S(=O)(=O)N(CCOCC(=O)N2CCn3c(CN(C)C)ccc3C2Cc2ccccc2)CC(C)C)c(C)c1C (centres unmarked) [Example 95, N-(2-(2-(1-benzyl-6-((dimethylamino)methyl)-3,4-dihydropyrrolo[1,2-a]pyrazin-2(1H)-yl)-2-oxoethoxy)ethyl)-N-isobutyl-4-methoxy-2,3,6-trimethylbenzene-sulfonamide]
